According to patent EP2468718A1, “Cabanillasin, a new antifungal compound, produced by entomopathogenic xenorhabdus cabanillasii” (Nosopharm, priority 2010, dated 2012):
Read-outs that look alike come from different tables or passages of the source.

Columns and labels:
Experiment in all cases: Antifungal susceptibility testing, NCCLS M27-A2 broth microdilution (yeasts)
Format in all cases: cell-based
[1] = test system: Cryptococcus neoformans clinical strain; settings: read-out: % of growth inhibition
Description: (§1) Cabanillasin activity was tested against different fungal human pathogens: ascomycetes yeasts (Candida albicans ATCC 90029, Candida Glabrata ATCC 90030, Candida krusei ATCC 6258 and Candida lusitaniae CBS 6936), basidiomycetes yeasts (Cryptococcus neoformans clinical strain), ascomycetes filamentous fungi (Aspergilus fumigatus clinical strain, Fusarium oxysporum clinical strain) and zygomycetes filamentous fungi (Rhizopus oryzae environemental strain) by the M38-A microdilution method with RPMI 1640 medium (RPMI 1640, MOPS 160 mM, glucose 18 g/L, pH 7) as recommended in the […]. The NCCLS M27-A2 broth microdilution method (NCCLS) was used when yeasts were tested.
(§2) Yeasts and filamentous inoculi were prepared on YPD medium (yeast extract 10 g/L, peptone 10 g/L and glucose 20 g/L) and Malt medium (malt extract 20 g/L) respectively. The densities of inoculi were adjusted by dilution in RPMI 1640 broth to a value ranged from 5.10^2 to 5.10^3 CFU/mL for yeasts isolates and 5.10^3 to 5.10^4 CFU/mL for filamentous fungi. Microdilution trays (96 U-bottom shaped) containing 190 µL fungal inoculum were added with 10 µL Cabanillasin solution (final concentration ranging from 50 to 0.098 mg/L for all fungi). After inoculation of the trays, all microdilution trays were incubated at 35°C in ambient air. The culture absorbance was measured at 600 nm, 24 h and 48 h after the beginning of the experiments for the yeasts and 48 h and 72 h after the beginning of the experiments for filamentous fungi and Cryptococcus neoformans. The activity results correspond to a percentage of growth inhibition ((1-Abs600 nm culture with Cabanillasin)/ Abs600 nm culture without Cabanillasin) x 100.
(§3) The IC50 value is the concentration at which inhibition of growth is equal to 50%. MICs for Candida species were determined at 24 h and 48 h and corresponded to 100% of growth inhibition. Amphotericin B was provided as standard (final concentration ranging from 16 to 0.03 mg/L for all fungi). Experiments were done in duplicate.

[2] = test system: Candida Glabrata ATCC 90030; settings: Nakaseomyces glabratus, ATCC90030, read-out: % of growth inhibition
Description: as §1, §2, §3

[3] = test system: Candida lusitaniae CBS 6936; settings: Clavispora lusitaniae, CBS6936, read-out: % of growth inhibition
Description: as §1, §2, §3

C[C@@H]1[C@H](O)[C@@H](C)/C=C/C=C/C=C/C=C/C=C/C=C/C=C/[C@H](O[C@@H]2O[C@H](C)[C@@H](O)[C@H](N)[C@@H]2O)C[C@@H]2O[C@](O)(C[C@@H](O)C[C@@H](O)[C@H](O)CC[C@@H](O)C[C@@H](O)CC(=O)O[C@H]1C)C[C@H](O)[C@H]2C(=O)O [Amphotericin B, reference compound]
44%: inhibition at 0.12 µg/mL ([1]; 72 h incubation)
70%: inhibition at 0.12 µg/mL ([1]; 48 h incubation)
25%: inhibition at 0.03 µg/mL ([2]; 48 h incubation)
84.5%: inhibition at 0.12 µg/mL ([3]; 48 h incubation)
16.8%: inhibition at 0.03 µg/mL ([2]; 24 h incubation)
63%: inhibition at 0.06 µg/mL ([3]; 24 h incubation)
68%: inhibition at 0.12 µg/mL ([2]; 48 h incubation)
45.4%: inhibition at 0.06 µg/mL ([3]; 48 h incubation)
81.5%: inhibition at 0.25 µg/mL ([1]; 72 h incubation)
0%: inhibition at 0.03 µg/mL ([1]; 72 h incubation)
19%: inhibition at 0.03 µg/mL ([3]; 24 h incubation)
5%: inhibition at 0.06 µg/mL ([1]; 72 h incubation)
23%: inhibition at 0.06 µg/mL ([2]; 48 h incubation)
32%: inhibition at 0.06 µg/mL ([1]; 48 h incubation)
71.3%: inhibition at 0.06 µg/mL ([2]; 24 h incubation)
11.2%: inhibition at 0.03 µg/mL ([3]; 48 h incubation)
17%: inhibition at 0.03 µg/mL ([1]; 48 h incubation)
100%: inhibition at 0.25 µg/mL ([1]; 48 h incubation) | inhibition at 0.5 µg/mL ([1]; 48 h incubation) | inhibition at 0.5 µg/mL ([1]; 72 h incubation) | inhibition at 1 µg/mL ([1]; 48 h incubation) | inhibition at 1 µg/mL ([1]; 72 h incubation) | inhibition at 2 µg/mL ([1]; 48 h incubation) | inhibition at 2 µg/mL ([1]; 72 h incubation) | inhibition at 4 µg/mL ([1]; 48 h incubation) | inhibition at 4 µg/mL ([1]; 72 h incubation) | inhibition at 8 µg/mL ([1]; 48 h incubation) | inhibition at 8 µg/mL ([1]; 72 h incubation) | inhibition at 16 µg/mL ([1]; 48 h incubation) | inhibition at 16 µg/mL ([1]; 72 h incubation) | inhibition at 0.12 µg/mL ([2]; 24 h incubation) | inhibition at 0.25 µg/mL ([2]; 24 h incubation) | inhibition at 0.25 µg/mL ([2]; 48 h incubation) | inhibition at 0.5 µg/mL ([2]; 24 h incubation) | inhibition at 0.5 µg/mL ([2]; 48 h incubation) | inhibition at 1 µg/mL ([2]; 24 h incubation) | inhibition at 1 µg/mL ([2]; 48 h incubation) | inhibition at 2 µg/mL ([2]; 24 h incubation) | inhibition at 2 µg/mL ([2]; 48 h incubation) | inhibition at 4 µg/mL ([2]; 24 h incubation) | inhibition at 4 µg/mL ([2]; 48 h incubation) | inhibition at 8 µg/mL ([2]; 24 h incubation) | inhibition at 8 µg/mL ([2]; 48 h incubation) | inhibition at 16 µg/mL ([2]; 24 h incubation) | inhibition at 16 µg/mL ([2]; 48 h incubation) | inhibition at 0.12 µg/mL ([3]; 24 h incubation) | inhibition at 0.25 µg/mL ([3]; 24 h incubation) | inhibition at 0.25 µg/mL ([3]; 48 h incubation) | inhibition at 0.5 µg/mL ([3]; 24 h incubation) | inhibition at 0.5 µg/mL ([3]; 48 h incubation) | inhibition at 1 µg/mL ([3]; 24 h incubation) | inhibition at 1 µg/mL ([3]; 48 h incubation) | inhibition at 2 µg/mL ([3]; 24 h incubation) | inhibition at 2 µg/mL ([3]; 48 h incubation) | inhibition at 4 µg/mL ([3]; 24 h incubation) | inhibition at 4 µg/mL ([3]; 48 h incubation) | inhibition at 8 µg/mL ([3]; 24 h incubation) | inhibition at 8 µg/mL ([3]; 48 h incubation) | inhibition at 16 µg/mL ([3]; 24 h incubation) | inhibition at 16 µg/mL ([3]; 48 h incubation)
